Data published in PubChem BioAssay AID1259407 (Chemical Carcinogenesis Research Information System (CCRIS), 2018).
Calls of active or inactive are those of the source. The rule behind the calls is not given here.

Tested on: CCRIS mutagenicity, Ames/micronucleus/aberration tests
Assay: CCRIS mutagenicity studies
[1] = Test System: AMES SALMONELLA TYPHIMURIUM, Strain/Indicator: TA98, Metabolic Activation: NONE, Method: STANDARD PLATE
[2] = Test System: AMES SALMONELLA TYPHIMURIUM, Strain/Indicator: TA100, Metabolic Activation: NONE, Method: STANDARD PLATE
[3] = Test System: AMES SALMONELLA TYPHIMURIUM, Strain/Indicator: TA98, Metabolic Activation: NONE, Method: PREINCUBATION
[4] = Test System: AMES SALMONELLA TYPHIMURIUM, Strain/Indicator: TA100, Metabolic Activation: NONE, Method: PREINCUBATION
[5] = Test System: AMES SALMONELLA TYPHIMURIUM, Strain/Indicator: TA100, Metabolic Activation: RAT, LIVER, S-9, AROCLOR 1254, Method: STANDARD PLATE
[6] = Test System: AMES SALMONELLA TYPHIMURIUM, Strain/Indicator: TA102, Metabolic Activation: NONE, Method: STANDARD PLATE

Q: Which results are given for Cl[Si](Cl)(Cl)Cl?
A: mutagenic call [1]: inactive; negative; mutagenic call (Test System: AMES SALMONELLA TYPHIMURIUM, Strain/Indicator: TA98, Metabolic Activation: RAT LIVER S-9, AROCLOR 1254, Method: STANDARD PLATE): inactive; negative; mutagenic call [2]: inactive; negative; mutagenic call (Test System: AMES SALMONELLA TYPHIMURIUM, Strain/Indicator: TA100, Metabolic Activation: RAT LIVER S-9, AROCLOR 1254, Method: STANDARD PLATE): inactive; negative; mutagenic call (Test System: AMES SALMONELLA TYPHIMURIUM, Strain/Indicator: TA1535, Metabolic Activation: NONE, Method: STANDARD PLATE): inactive; negative; mutagenic call (Test System: AMES SALMONELLA TYPHIMURIUM, Strain/Indicator: TA1535, Metabolic Activation: RAT LIVER S-9, AROCLOR 1254, Method: STANDARD PLATE): inactive; negative; mutagenic call (Test System: AMES SALMONELLA TYPHIMURIUM, Strain/Indicator: TA1537, Metabolic Activation: NONE, Method: STANDARD PLATE): inactive; negative; mutagenic call (Test System: AMES SALMONELLA TYPHIMURIUM, Strain/Indicator: TA1537, Metabolic Activation: RAT LIVER S-9, AROCLOR 1254, Method: STANDARD PLATE): inactive; negative; mutagenic call (Test System: AMES SALMONELLA TYPHIMURIUM, Strain/Indicator: TA1538, Metabolic Activation: NONE, Method: STANDARD PLATE): inactive; negative; mutagenic call (Test System: AMES SALMONELLA TYPHIMURIUM, Strain/Indicator: TA1538, Metabolic Activation: RAT LIVER S-9, AROCLOR 1254, Method: STANDARD PLATE): inactive; negative; mutagenic call (Test System: E. COLI, Strain/Indicator: P3078 POLA, Metabolic Activation: NONE, Method: SPOT TEST): inactive; negative; mutagenic call (Test System: E. COLI, Strain/Indicator: P3078 POLA, Metabolic Activation: RAT LIVER S-9, AROCLOR 1254, Method: SPOT TEST): inactive; negative; mutagenic call (Test System: E. COLI, Strain/Indicator: W3110, Metabolic Activation: NONE, Method: SPOT TEST): inactive; negative; mutagenic call (Test System: E. COLI, Strain/Indicator: W3110, Metabolic Activation: RAT LIVER S-9, AROCLOR 1254, Method: SPOT TEST): inactive; negative; mutagenic call (Test System: MOUSE LYMPHOMA, Strain/Indicator: L5178Y (TK+/TK-), Metabolic Activation: NONE, Method: SUSPENSION/PLATE): inactive; negative; mutagenic call (Test System: MOUSE LYMPHOMA, Strain/Indicator: L5178Y (TK+/TK-), Metabolic Activation: RAT, LIVER, S-9, Method: SUSPENSION/PLATE): inactive; negative

Q: For CCCN(CCC)CCc1cccc2[nH]c3c(C)ccc(C)c3c12, which mutagenic call [1] is on record?
A: Its mutagenic call is “inactive; negative”.

Q: What about the mutagenic call (Test System: AMES SALMONELLA TYPHIMURIUM, Strain/Indicator: TA98, Metabolic Activation: RAT, LIVER, S-9, PHENOBARBITAL AND 5,6-BENZOFLAVONE, Method: STANDARD PLATE) of the same compound?
A: The mutagenic call was “active; positive”.

Q: What about the mutagenic call [2] of the same compound?
A: The mutagenic call was “inactive; negative”.

Q: And the mutagenic call (Test System: AMES SALMONELLA TYPHIMURIUM, Strain/Indicator: TA100, Metabolic Activation: RAT, LIVER, S-9, PHENOBARBITAL AND 5,6-BENZOFLAVONE, Method: STANDARD PLATE)?
A: The mutagenic call was “active; positive”.

Q: What about the mutagenic call (Test System: UDS HUMAN HEPATOCYTES, Strain/Indicator: THY INCORP, Metabolic Activation: NONE, Method: IN VITRO) of the same compound?
A: Its mutagenic call is “active; positive”.

Q: What about the mutagenic call (Test System: UDS RAT HEPATOCYTES, Strain/Indicator: THY INCORP, Metabolic Activation: NONE, Method: IN VIVO-IN VITRO) of the same compound?
A: The mutagenic call was “active; positive”.

Q: With O=C(O)/C(Cl)=C(/CCl)C(=O)O as the compound, how does the mutagenic call [3] read?
A: Its mutagenic call is “inactive; negative”.

Q: What about the mutagenic call [4] of the same compound?
A: The mutagenic call was “inactive; negative”.

Q: And the mutagenic call (Test System: AMES SALMONELLA TYPHIMURIUM, Strain/Indicator: TA104, Metabolic Activation: NONE, Method: PREINCUBATION)?
A: The mutagenic call was “inactive; negative”.

Q: Which results are given for N[C@@H](CSCc1ccccc1)C(=O)O?
A: mutagenic call [3]: inactive; negative; mutagenic call (Test System: AMES SALMONELLA TYPHIMURIUM, Strain/Indicator: TA98, Metabolic Activation: RAT, LIVER OR KIDNEY, MICROSOMES, Method: PREINCUBATION): inactive; negative; mutagenic call [4]: inactive; negative; mutagenic call (Test System: AMES SALMONELLA TYPHIMURIUM, Strain/Indicator: TA100, Metabolic Activation: RAT, LIVER OR KIDNEY, MICROSOMES, Method: PREINCUBATION): inactive; negative; mutagenic call (Test System: AMES SALMONELLA TYPHIMURIUM, Strain/Indicator: TA102, Metabolic Activation: NONE, Method: PREINCUBATION): inactive; negative; mutagenic call (Test System: AMES SALMONELLA TYPHIMURIUM, Strain/Indicator: TA102, Metabolic Activation: RAT, LIVER OR KIDNEY, MICROSOMES, Method: PREINCUBATION): inactive; negative; mutagenic call (Test System: AMES SALMONELLA TYPHIMURIUM, Strain/Indicator: TA2638, Metabolic Activation: NONE, Method: PREINCUBATION): inactive; negative; mutagenic call (Test System: AMES SALMONELLA TYPHIMURIUM, Strain/Indicator: TA2638, Metabolic Activation: RAT, LIVER OR KIDNEY, MICROSOMES, Method: PREINCUBATION): inactive; negative

Q: For CCOC(=O)c1[nH]c2ccccc2c1N=Cc1ccc(NC(C)=O)cc1, which mutagenic call (Test System: AMES SALMONELLA TYPHIMURIUM, Strain/Indicator: TA97, Metabolic Activation: NONE, Method: STANDARD PLATE) is on record?
A: Its mutagenic call is “active; positive”.

Q: What about the mutagenic call (Test System: AMES SALMONELLA TYPHIMURIUM, Strain/Indicator: TA97, Metabolic Activation: RAT, LIVER, S-9, AROCLOR 1254, Method: STANDARD PLATE) of the same compound?
A: The mutagenic call was “inactive; negative”.

Q: And the mutagenic call [1]?
A: Its mutagenic call is “inactive; negative”.

Q: And the mutagenic call (Test System: AMES SALMONELLA TYPHIMURIUM, Strain/Indicator: TA98, Metabolic Activation: RAT, LIVER, S-9, AROCLOR 1254, Method: STANDARD PLATE)?
A: The mutagenic call was “inactive; negative”.

Q: What about the mutagenic call [2] of the same compound?
A: The mutagenic call was “inactive; negative”.

Q: What about the mutagenic call [5] of the same compound?
A: The mutagenic call was “inactive; negative”.

Q: And the mutagenic call [6]?
A: Its mutagenic call is “inactive; negative”.

Q: What about the mutagenic call (Test System: AMES SALMONELLA TYPHIMURIUM, Strain/Indicator: TA102, Metabolic Activation: RAT, LIVER, S-9, AROCLOR 1254, Method: STANDARD PLATE) of the same compound?
A: Its mutagenic call is “inactive; negative”.

Q: With CN1CCN(c2c(F)cc3c(=O)c(C(=O)O)cn4c3c2OCN4C)CC1 as the compound, how does the mutagenic call [6] read?
A: The mutagenic call was “active; positive”.

Q: And the mutagenic call (Test System: CHINESE HAMSTER V-79, Strain/Indicator: V-79 (HPRT)/6-THIOGUANINE, Metabolic Activation: RAT, LIVER, S-9, AROCLOR 1254)?
A: The mutagenic call was “active; positive”.

Q: How did the mutagenic call [1] turn out when O[C@@H]1C=Cc2c(ccc3c2ccc2ccccc23)[C@H]1O was run?
A: Its mutagenic call is “inactive; negative”.

Q: What about the mutagenic call (Test System: AMES SALMONELLA TYPHIMURIUM, Strain/Indicator: TA100, Metabolic Activation: EPITHELIAL CELL-MEDIATED, AROCLOR 1254, Method: PREINCUBATION) of the same compound?
A: The mutagenic call was “active; positive”.

Q: What about the mutagenic call (Test System: AMES SALMONELLA TYPHIMURIUM, Strain/Indicator: TA100, Metabolic Activation: EPITHELIAL CELL-MEDIATED, Method: PREINCUBATION) of the same compound?
A: The mutagenic call was “inactive; negative”.

Q: What about the mutagenic call (Test System: AMES SALMONELLA TYPHIMURIUM, Strain/Indicator: TA100, Metabolic Activation: KUPFFER CELL-MEDIATED, AROCLOR 1254, Method: PREINCUBATION) of the same compound?
A: The mutagenic call was “active; positive”.

Q: What about the mutagenic call (Test System: AMES SALMONELLA TYPHIMURIUM, Strain/Indicator: TA100, Metabolic Activation: KUPFFER CELL-MEDIATED, Method: PREINCUBATION) of the same compound?
A: The mutagenic call was “inactive; negative”.

Q: What about the mutagenic call [2] of the same compound?
A: The mutagenic call was “inactive; negative”.

Q: And the mutagenic call (Test System: AMES SALMONELLA TYPHIMURIUM, Strain/Indicator: TA100, Metabolic Activation: PARENCHYMAL CELL-MEDIATED, AROCLOR 1254, Method: PREINCUBATION)?
A: Its mutagenic call is “active; positive”.

Q: And the mutagenic call (Test System: AMES SALMONELLA TYPHIMURIUM, Strain/Indicator: TA100, Metabolic Activation: PARENCHYMAL CELL-MEDIATED, NADPH, Method: PREINCUBATION)?
A: The mutagenic call was “active; positive”.

Q: And the mutagenic call (Test System: AMES SALMONELLA TYPHIMURIUM, Strain/Indicator: TA100, Metabolic Activation: PARENCHYMAL CELL-MEDIATED, Method: PREINCUBATION)?
A: The mutagenic call was “inactive; negative”.

Q: And the mutagenic call [5]?
A: The mutagenic call was “active; positive”.

Q: Nc1c(Oc2ccccc2)cc(O)c2c1C(=O)c1ccccc1C2=O was tested. Which mutagenic call (Test System: AMES SALMONELLA TYPHIMURIUM, Strain/Indicator: TA98, Metabolic Activation: HAMSTER, LIVER, S-9, AROCLOR 1254 (10%), Method: STANDARD PLATE) did it give?
A: Its mutagenic call is “active; positive”.

Q: And the mutagenic call [1]?
A: The mutagenic call was “active; positive”.

Q: What about the mutagenic call (Test System: AMES SALMONELLA TYPHIMURIUM, Strain/Indicator: TA98, Metabolic Activation: RAT, LIVER, S-9, AROCLOR 1254 (10%), Method: STANDARD PLATE) of the same compound?
A: Its mutagenic call is “active; positive”.

Q: What about the mutagenic call (Test System: AMES SALMONELLA TYPHIMURIUM, Strain/Indicator: TA100, Metabolic Activation: HAMSTER, LIVER, S-9, AROCLOR 1254 (10%), Method: STANDARD PLATE) of the same compound?
A: The mutagenic call was “inactive; negative”.

Q: And the mutagenic call [2]?
A: The mutagenic call was “inactive; negative”.

Q: What about the mutagenic call (Test System: AMES SALMONELLA TYPHIMURIUM, Strain/Indicator: TA100, Metabolic Activation: RAT, LIVER, S-9, AROCLOR 1254 (10%), Method: STANDARD PLATE) of the same compound?
A: The mutagenic call was “inactive; negative”.

Q: And the mutagenic call (Test System: MOUSE LYMPHOMA, Strain/Indicator: L5178Y (TK+/TK-), Metabolic Activation: RAT, LIVER, S-9, AROCLOR 1254, Method: SUSPENSION/PLATE)?
A: Its mutagenic call is “inactive; negative. reevaluation of results: negative”.
